The test system of test [1] is MGC-803 (human lung adenocarcinoma cell line). Kind of test: MTT cytotoxicity assay, MGC-803. In kind it is cell-based. The conditions noted are these: 48 h, no irradiation, mean ± SD of three experiments. As for the experimental part:
(§1) Cell Lines. The following in vitro human cancer cell lines were used: HCT-116 (Human colorectal cells), human KB (human nasopharyngeal carcinoma cells), MGC-803 (human lung adenocarcinoma cell line), HUVEC (Human Umbilical Vein Endothelial Cells). The cell lines (HCT-116, KB, MGC-803 and HUVEC) were purchased from the Cell Resource Center of Shanghai Institutes for Biological Sciences, the Academy of Sciences of China.
(§2) Cell Culture. HCT-116, human KB, MGC-803 and HUVEC cells were cultured in Dulbecco Modified Eagle Medium (DMEM; HyClone, Los Angeles, CA, USA), containing 4.0 mM L-Glutamine and 4500 mg/L Glucose, supplemented with 10% (v/v) foetalbovine serum (FBS; HyClone). The cell culturemedia was supplemented with penicillin/streptomycin at 100 Units/mL as adherent monolayers. Cell cultures were kept in a humidified incubator with 5% CO2 at 37 °C. Stock solutions were prepared in dimethyl sulfoxide (DMSO) and further dilutions were made with fresh culture medium. The concentration of DMSO in the final culture medium was 1%, which had no effect on the cell viability.
(§3) MTT Assay. Chemosensitivity was assessed using 3-(4,5-dimethylthiazol-2-yl)-2,5-diphenyl tetrazolium bromide (MTT) assay. Briefly, exponentially growing HCT-116 (3000–4000 cells/well), human KB (2000–3000 cells/well) and MGC 803 (2000–3000 cells/well) were seeded into 96-well plates and treated with indicated concentrations of samples for 48 h, and then […] of MTT (10 mg/mL) was added. After incubation for 4 h at 37 °C, the purple formazan crystals (i.e., a reduced form of MTT) generated from viable cells were dissolved by adding 100 μL DMSO in each well. The plates were swirled gently for 10 min to dissolve the precipitate, and quantified by measuring the optical density (OD) of the plates at a wavelength of 490 nm on plate reader (TECAN infinite M1000). Each concentration was repeated in three wells and the same experimental conditions were provided for all compounds and MTT analysis was repeated three times for each cell line.
A general note: Tetrazolium assays rely on reduction of a dye to a coloured formazan, in cell work by metabolically active cells.

The test system of test [2] is HUVEC (Human Umbilical Vein Endothelial Cells). Put plainly: MTT cytotoxicity assay, HUVEC normal cells. The class given is cell-based. The conditions noted are these: no irradiation, mean ± SD of three experiments. Here is the method: as §1, §2, §3
Test [3] deals with HCT-116 (Human colorectal cells). Put plainly: MTT cytotoxicity assay, HCT-116. In kind it is cell-based. The conditions noted are these: MTT, 48 h, no irradiation, mean ± SD of three experiments. As for the experimental part:
as §1, §2, §3

Test [4] deals with human KB (human nasopharyngeal carcinoma cells). Kind of test: MTT cytotoxicity assay, human KB. In kind it is cell-based. The conditions noted are these: 48 h, no irradiation, mean ± SD of three experiments. Here is the method:
as §1, §2, §3

A further test concerns CT-DNA. Put plainly: Spectrofluorimetric titration with CT-DNA (Stern-Volmer and binding constants). To be noted: from F0/F-1 vs [DNA]; Tris-HCl buffer pH 7.2. Details: species or system calf. As for the experimental part:
The DNA binding properties of compounds 8a–8j were evaluated based on their affinity or interaction with CT-DNA, measured with fluorescence spectrometric titration.
The calibration curve for determination of DNA was constructed by adding different proportion of DNA to a 2.0 × 10^−3 M compound 8j solution (pH = 7.2 Tris-HCl buffer). […] [Q] is the concentration of quencher. KSV is the Stern-Volmer constant and KQ is the bimolecular quenching rate constant. τ0 is the lifetime of the fluorophore in the absence of quencher and for most biomolecules τ0 is about 10^−8 s. The Stern-Volmer constant, KSV, for compound 8j has been determined from the plot of F0/F-1 vs. [DNA] (see Figure 2) and found to be 5.11 × 10^2 M^−1.
When small molecules binding independently to a set of equivalent sites on a macromolecule, the equilibrium between free and bound molecules is given by the equation [28]: (2) lg (F0/F-1) = lgKb + nlg[Q] where Kb and n are the binding constant and the number of binding sites, respectively, which could be got from the curve of lg(F0/F-1) vs. lg[Q]. The plot of lg(F0/F-1) vs. lg[DNA] has been shown in Figure 3 for compound 8j and indicates a simple binding process for the compound.
All fluorescence experiments were carried out on a Perkin-Elmer LS50B luminescence spectrometer. Fluorescence spectra were measured at rt using quartz cells of 1cm path. To the solutions of the drugs (2.0 × 10^−3 M) in 2.5 mL Tris-HCl buffer (pH = 7.2) were added aliquots of CT-DNA (2.0 × 10^−3 M) solution containing drugs (2.0 × 10^−3 M) in 2.5 mL Tris-HCl buffer (pH = 7.2). This operation ensured that the concentration of CT-DNA increased gradually from 0 to 360 µM, while the concentrations of drugs were kept constant. The mixing was achieved by stirring for 10min. Then, the corresponding fluorescence spectra were measured (ex 325 nm, ex/em 1.5 nm/1.5 nm). Binding constants were derived from the modified.

The next test concerns HCT-116 cells. Put plainly: Apoptosis and cell cycle analysis by flow cytometry (PI staining). In kind it is cell-based, human. The conditions noted are these: HCT-116, 48 h at IC50 concentration; untreated cells 35.32%. As for the experimental part: Compared to the control (untreated cells), changes in the cell cycle distribution of treated HCT-116 cells were evident.
Figure 6 Inhibition of cell cycle progress in HCT-116 cells treated with compounds 8d, 8f, 8c and 8j for 48 h. Cells were fixed with ethanol and stained with PI. Cell cycle distribution was analyzed by flow cytometry. First peak represents sub-G1 peak, which was taken as the fraction of the apoptotic cell population. TEXT PRINTED IN THE PICTURE: 8d: Diploid: 100.00%; Dip G1: 87.24 % at 74.84; Dip G2: 7.42 % at 147.44; Dip S: 5.34 % | 8f: Diploid: 100.00%; Dip G1: 74.25 % at 73.13; Dip G2: 10.86 % at 144.07; Dip S: 14.89 % | 8c: Diploid: 100.00%; Dip G1: 82.72 % at 72.85; Dip G2: 6.28 % at 143.51; Dip S: 11.00% | 8j: Diploid: 100.00%; Dip G1: 15.12 % at 45.10; Dip G2: 52.47 % at 88.84; Dip S: 32.40%; Apoptosis: 4.01 % Mean: 33.84 | Control (−): Diploid: 100.00%; Dip G1: 35.32 % at 52.60; Dip G2: 19.20 % at 103.62; Dip S: 45.84% DOUBTS OF THE COPYIST ABOUT THIS PICTURE: Print is small throughout, so 3, 5, 6, 8 and 9 cannot be told apart with certainty in the values below; best readings are given. / 8d, Dip G1: 87.24 % at 74.84, the 8s uncertain / 8d, Dip S: 5.34, the 5 and 3 uncertain / 8f, Dip G2: 10.86 % at 144.07, the 8 and 6 uncertain / 8f, Dip S: 14.89, the 8 and 9 uncertain / 8c, Dip G1: 82.72 % at 72.85, the 8s and 5 uncertain / 8c, Dip G2: 6.28 % at 143.51, the 6, 8, 3 and 5 uncertain / 8j, Dip G2: 52.47 % at 88.84, the 5 and 8s uncertain / 8j, Apoptosis: 4.01 % Mean: 33.84, the 3s and 8 uncertain / Control (−), Dip G1: 35.32 % at 52.60, the 3s, 5s and 6 uncertain / Control (−), Dip G2: 19.20 % at 103.62, the 9, 3 and 6 uncertain / Control (−), Dip S: 45.84, the 5 and 8 uncertain / Control (−) is an untreated control, not a compound; it is included because results are printed with it. / G2/G1: 1.97 and %CV, printed in every plot, are left out as fit parameter and statistic.
Apoptosis was quantified by assessing the fraction of cells with sub-G1 DNA content by flow cytometry. The cells lines were treated with indicated concentrations of compounds […]. After incubated for 48 h, cells were washed twice with ice-cold PBS, fixed and permeabilized with ice-cold 70% ethanol at −20 °C overnight. The cells were treated with 100 μg/mL RNase A at 37 °C for 30 min after washed with ice-cold PBS, and finally stained with 1 mg/mL propidium iodide (PI) in the dark at 4 °C for 30 min. Analysis was performed with the system software (Cell Quest; BD Biosciences, Franklin Lakes, NJ, USA).
Background: Flow cytometry measures light scatter and fluorescence of single cells or particles in a stream.

Setting [5] is: Homo sapiens, MGC-803, light or radiation study.
Setting [6] is: Homo sapiens, HUVEC, light or radiation study.
Setting [7] is: Homo sapiens, HCT-116, light or radiation study.
The mark [8] stands for this setting: Homo sapiens, light or radiation study.

As usually defined, the IC50 is the concentration needed to halve the response being measured. Lower therefore signals inhibition by little substance. On to `O=c1[nH]cc(F)c(=O)[nH]1` [Compound 5-Fu, 5-fluoro-2,4(1H,3H)pyrimidinedione, reference compound], for which the IC50 in test [1] (setting [5]) was 15.3 ± 1.96 µM; in test [2] (setting [6]), 56 ± 3.21 µM; in test [3] (setting [7]) it was 10.1 ± 2.2 µM; in test [4] (setting [8]) it was 1.23 ± 1.09 µM.
In the case of `CCOP(=O)(OCC)C(NC(=O)CCOc1ccc2c(C)cc(=O)oc2c1)c1ccccc1F` (stereo not drawn) [Compound 8b, Diethyl(3-(4-methyl-2-oxo-2H-chromen-7-yloxy)propanamido)(2-fluorophenyl)methylphospho-nate], the IC50 is above 100 µM in test [1], above 100 µM in test [2], above 100 µM in test [3] and above 50 µM in test [4]. Moreover, the “KSV (Stern-Volmer constant)” value with CT-DNA stood at 299 M⁻¹.
With `CCOP(=O)(OCC)C(NC(=O)CCOc1ccc2c(C)cc(=O)oc2c1)c1ccccc1` (stereo not drawn) [Compound 8a, Diethyl(3-(4-methyl-2-oxo-2H-chromen-7-yloxy)propanamido)(phenyl)methylphosphonate], the IC50 in test [1] is above 100 µM; in test [2] it was above 100 µM; in test [3], above 100 µM; in test [4] it was above 50 µM. Also, in the test on CT-DNA, the “KSV (Stern-Volmer constant)” value came to 340 M⁻¹.
Regarding `CCOP(=O)(OCC)C(NC(=O)CCOc1ccc2c(C)cc(=O)oc2c1)c1ccccc1Cl` (stereo not drawn) [Compound 8c, Diethyl(3-(4-methyl-2-oxo-2H-chromen-7-yloxy)propanamido)(2-chlorophenyl)methylphospho-nate], in the test on HCT-116 cells, the G1-phase population worked out at 82.72%. The IC50 in test [1] was 79.4 ± 3.82 µM; in test [2] it was above 100 µM; in test [3] it was 88.7 ± 1.69 µM; in test [4], 33.4 ± 1.2 µM. In addition, in the test on CT-DNA, the “KSV (Stern-Volmer constant)” value was determined as 481 M⁻¹.
Turning to `CCOP(=O)(OCC)C(NC(=O)CCOc1ccc2c(C)cc(=O)oc2c1)c1ccc2ccccc2c1` (stereo not drawn) [Compound 8i, Diethyl(3-(4-methyl-2-oxo-2H-chromen-7-yloxy)propanamido)(naphthalen-2-yl)methylphosph-onate], the results for the IC50 in test [1], in test [2] and in test [3] were 41.5 ± 2.86 µM, above 100 µM and 38.9 ± 0.04 µM, respectively. Moreover, in the test on CT-DNA, the “KSV (Stern-Volmer constant)” value came out at 18100 M⁻¹.
`CCOP(=O)(OCC)C(NC(=O)CCOc1ccc2c(C)cc(=O)oc2c1)c1ccccc1Br` (stereo not drawn) [Compound 8e, Diethyl(3-(4-methyl-2-oxo-2H-chromen-7-yloxy)propanamido)(2-bromophenyl)methylphospho-nate]: the concentration for half-maximal inhibition (IC50) in test [1] is 67.5 ± 3.26 µM; in test [2], above 100 µM; in test [3] it was 90.5 ± 1.09 µM; in test [4] it was 9.55 ± 0.09 µM. In the test on CT-DNA, the “KSV (Stern-Volmer constant)” value was 475 M⁻¹.
Turning to `CCOP(=O)(OCC)C(NC(=O)CCOc1ccc2c(C)cc(=O)oc2c1)c1ccc(Br)cc1` (stereo not drawn) [Compound 8g, Diethyl(3-(4-methyl-2-oxo-2H-chromen-7-yloxy)propanamido)(4-bromophenyl)methylphosph-onate], the IC50 is 85.6 ± 2.83 µM in test [1], above 100 µM in test [2], 88.5 ± 4.62 µM in test [3] and 7.27 ± 6.18 µM in test [4]. The “KSV (Stern-Volmer constant)” value with CT-DNA is 410 M⁻¹.
Turning to `CCOP(=O)(OCC)C(NC(=O)CCOc1ccc2c(C)cc(=O)oc2c1)c1ccc(Cl)cc1` (stereo not drawn) [Compound 8d, Diethyl(3-(4-methyl-2-oxo-2H-chromen-7-yloxy)propanamido)(4-chlorophenyl)methylphospho-nate], the G1-phase population in the test with HCT-116 cells was 87.24%. For the same compound, the half-maximal inhibitory concentration (IC50) was 76.9 ± 3.89 µM in test [1], above 100 µM in test [2], 86.2 ± 1.86 µM in test [3] and 7.8 ± 5.36 µM in test [4]. Moreover, the “KSV (Stern-Volmer constant)” value in the test on CT-DNA came out at 429 M⁻¹.
With `Cc1cc(=O)oc2cc(O)ccc12` [Compound 2, 7-Hydroxy-4-methyl-2H-chromen-2-one, reference compound], the IC50 in test [1] (setting [5]) was above 100 µM; in test [2] (setting [6]) it was above 100 µM; in test [3] (setting [7]), above 100 µM; in test [4] (setting [8]), above 50 µM. For the same compound, in the test with CT-DNA, the “KSV (Stern-Volmer constant)” value worked out at 442 M⁻¹.

(Values after article PMC6331810, “Novel Coumarin-Containing Aminophosphonatesas Antitumor Agent: Synthesis, Cytotoxicity, DNA-Binding and Apoptosis Evaluation” (Molecules, 2015).)
